Laboratory results from patent US8486945B2, “Heterocyclic inhibitors of an Hh-signal cascade, medicinal compositions based thereon and methods for treating diseases caused by the aberrant activity of an Hh-signal system” (priority 2007, dated 2013).

The molecules below were run on Hh-signalling cascade (assay: Inhibition of SHh-induced alkaline phosphatase in C3H10T1/2 cells (Hh-signalling cascade inhibition)). Details: Mus musculus, C3H 10T1/2, half maximal inhibition of SHh (0.3 μg/ml) stimulation of cell alkaline phosphatase.
Assay type: cell-based
From the text: C3H10T1/2 Cells were used for identification of inhibitors of SHh-protein signaling cascade. SHh-protein activates C3H10T1/2 cells, that leads to their osteogenic differentiation [1) Kinto N., Iwamoto M., Enomoto-Iwamoto M., Noji S., Ohuchi H., Yoshioka H., Kataoka H., Wada Y., Yuhao G., Takahashi H. E., Yoshiki S., Yamaguchi A. Fibroblasts expressing Sonic hedgehog induce osteoblast differentiation and ectopic bone formation. FEBS Lett. 1997; 404(2-3): 319-23. 2) Spinella-Jaegle S., Rawadi G., Kawai S., Gallea S., Faucheu C., Mollat P., Courtois B., Bergaud B., Ramez V., Blanchet A. M., Adelmant G., Baron R., Roman-Roman S. Sonic hedgehog increases the commitment of pluripotent mesenchymal cells into the osteoblastic lineage and abolishes adipocytic differentiation. J. Cell Sci. 2001; 114(Pt 11): 2085-94] and, in particular, to expression enhancement of alkaline phosphatase enzyme.
The cells were cultivated in DMEM medium with 10% embryonal calfish serum in incubator at 37° C., 100% humidity and 5% CO2 content. The cells were placed in 384-well plates and left for night. On the next day the tested compounds in concentration of 10 μM were added to the cells, incubated for 30 min, then recombinant (R & D Systems, USA) SHh protein in concentration of 0.3 μg/ml was added and incubation was continued for 3 days. Cells with DMSO instead of a test compound and cells without SHh protein were used as test control. For determination of the cell alkaline phosphatase activity the cells were lysed in the buffer containing 0.2% Triton-X100, lisates were incubated together with proluminescent substrate CSPD (Applied Biosystems, USA) and the resultant luminescence was measured using reader VICTOR^2V (PerkinElmer, USA).
The ability of the compounds to inhibit Hh-signalling cascade was determined using C3H10T1/2 cells in 384-well plates as described in example 1. The compounds were added in triplicates in various concentrations, prepared by multiple dilution of starting solutions (concentration dependences of cell alkaline phosphatase inhibition induced by the addition of tested compounds are shown in FIG. 1). Activity of the compounds was characterized by their concentrations produced half maximal inhibition of stimulation of cell alkaline phosphatase SHh (IC50).

IC50 | SMILES
< 0.5 µM | Cc1nn(C(C)C(=O)N2CCN(c3ccccc3F)CC2)c(=O)c2nn(-c3ccccc3)c(C)c12 (centres unmarked) [I-1013, 2-Phenyl-3,4-dimethyl-6-{1-methyl-2-[4-(2-fluorophenyl)piperazin-1-yl]-2-oxoethyl}-2,6-dihydro-7H-pyrazolo[3,4-d]pyridazin-7-one]
< 5 µM | Cc1ccc(-n2nc3c(=O)n(CC(=O)Nc4ccccc4F)nc(C)c3c2C)c(C)c1 [I-1014, 2-[2-(2,4-dimethylphenyl)-3,4-dimethyl-7-oxo-2,7-dihydro-6H-pyrazolo[3,4-c]pyridazin-6-yl]-N-(2-fluorophenyl)acetamide]
< 5 µM | CCC(C(=O)N1CCOCC1)n1nc(C)c2c(C)n(-c3ccccc3)nc2c1=O (centres unmarked) [I-1015, 2-Phenyl-3,4-dimethyl-6-[1-(morpholin-4-ylcarbonyl)propyl]-2,6-dihydro-7H-pyrazolo[3,4-c]pyridazin-7-one]
< 5 µM | Cc1ccc(-n2nc3c(=O)n(CC(=O)NCc4ccc(C)o4)nc(C)c3c2C)cc1 [I-1016, 2-[2-(4-Methylphenyl)-3,4-dimethyl-7-oxo-2,7-dihydro-6H-pyrazolo[3,4-d]pyridazin-6-yl]-N-[(5-methylfuran-2-yl)methyl]acetamide]
< 5 µM | Cc1ccc(-n2nc3c(=O)n(C(C)C(=O)NCCc4cccs4)nc(C)c3c2C)cc1 (centres unmarked) [I-1017, 2-[2-(4-Methylphenyl)-3,4-dimethyl-7-oxo-2,7-dihydro-6H-pyrazolo[3,4-d]pyridazin-6-yl)-N-[2-(thien-2-yl)ethyl]propanamide]
< 5 µM | CCC(C(=O)NC1CC1)n1nc(C)c2c(C)n(-c3ccc(C)cc3)nc2c1=O (centres unmarked) [I-1018, 2-[2-(4-Methylphenyl)-3,4-dimethyl-7-oxo-2,7-dihydro-6H-pyrazolo[3,4-c]pyridazin-6-yl]-N-(cyclopropyl)butanamide]
< 5 µM | Cc1nn(CCC(=O)NCc2cccnc2)c(=O)c2nn(-c3ccccc3)c(C)c12 [I-1019, 3-(2-Phenyl-3,4-dimethyl-7-oxo-2,7-dihydro-6H-pyrazolo[3,4-c]pyridazin-6-yl)-N-(pyridin-3-ylmethyl)propanamide]
< 5 µM | Cc1nn(CCC(=O)NCc2ccco2)c(=O)c2nn(-c3ccccc3)c(C)c12 [I-1020, 3-(2-Phenyl-3,4-dimethyl-7-oxo-2,7-dihydro-6H-pyrazolo[3,4-c]pyridazin-6-yl)-N-(furan-2-ylmethyl)propanamide]
< 5 µM | Cc1nn(CCC(=O)N2CCOCC2)c(=O)c2nn(-c3ccccc3)c(C)c12 [I-1021, 2-Phenyl-3,4-dimethyl-6-(3-(morpholin-4-yl)-3-oxopropyl)-2,6-dihydro-7H-pyrazolo[3,4-c]pyridazin-7-one]
< 5 µM | Cc1nn(CCC(=O)NCc2cccs2)c(=O)c2nn(-c3ccccc3)c(C)c12 [I-1022, 3-(2-Phenyl-3,4-dimethyl-7-oxo-2,7-dihydro-6H-pyrazolo[3,4-c]pyridazin-6-yl)-N-(thien-2-ylmethyl)propanamide]
< 50 µM | Cc1ccc(-n2nc3c(=O)n(CCCC(=O)NCCc4ccco4)nc(C)c3c2C)cc1 [I-1023, 4-[2-(4-Methylphenyl)-3,4-dimethyl-oxo-2,7-dihydro-6H-pyrazolo[3,4-d]pyridazin-6-yl]-N-[2-(furan-2-yl)ethyl]butanamide]
< 50 µM | CCN1CCN(C(=O)CCCn2nc(C)c3c(C)n(-c4ccc(C)cc4)nc3c2=O)CC1 [I-1024, 2-(4-Methylphenyl)-3,4-dimethyl-6-[4-(4-ethylpiperazin-1-yl)-4-oxobutyl]-2,6-dihydro-7H-pyrazolo[3,4-c]pyridazin-7-one]
< 50 µM | Cc1nn(CCCC(=O)N2CCOCC2)c(=O)c2nn(-c3ccccc3)c(C)c12 [I-1025, 2-Phenyl-3,4-dimethyl-6-[4-(morpholin-4-yl)-4-oxobutyl]-2,6-dihydro-2H-pyrazolo[3,4-c]pyridazin-7-one]
< 50 µM | Cc1nn(CCCC(=O)Nc2ccc(C(C)C)cc2)c(=O)c2nn(-c3ccccc3)c(C)c12 [I-1026, 4-(2-Phenyl-3,4-dimethyl-7-oxo-2,7-dihydro-6H-pyrazolo[3,4-d]pyridazin-6-yl)-N-[(1-methylethyl)phenyl]butanamide]
